Measured values as given in the supplement of paper PMC10307832.

Assays:
Assay in all cases: relative viability (nuclei count vs DMSO), 5 days (fraction); higher = more cells survive
EBC-1 = tested on: EBC-1
How it was run: (§1)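 Values are medians from duplicate plates. Each reflects relative viability, defined as the nuclei count of treated wells over that of vehicle wells. Lung cancer cell lines in 1536-well plates were pin-tool dosed one day after seeding with one drug alone or with a fixed anchor-drug dose plus five library-drug doses (not always all listed) in √10 steps, then fixed, stained and imaged at 4× after 5 days.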

UMC-11 = tested on: UMC-11
How it was run: as §1

NCI-H1299 = tested on: NCI-H1299
How it was run: as §1

IA-LM = tested on: IA-LM
How it was run: as §1

Calu-6 = tested on: Calu-6
How it was run: as §1

NCI-H1703 = tested on: NCI-H1703
How it was run: as §1

A549 = tested on: A549
How it was run: as §1

Compound	relative viability (EBC-1; first compound 0.04 µM)	relative viability (EBC-1; first compound 0.1265 µM)	relative viability (EBC-1; first compound 0.4 µM)	relative viability (EBC-1; first compound 1.265 µM)	relative viability (EBC-1; first compound 4 µM)	relative viability (UMC-11; first compound 0.04 µM)	relative viability (UMC-11; first compound 0.1265 µM)	relative viability (UMC-11; first compound 0.4 µM)	relative viability (UMC-11; first compound 1.265 µM)	relative viability (UMC-11; first compound 4 µM)	relative viability (NCI-H1299; first compound 0.04 µM)	relative viability (NCI-H1299; first compound 0.1265 µM)	relative viability (NCI-H1299; first compound 0.4 µM)	relative viability (NCI-H1299; first compound 1.265 µM)	relative viability (NCI-H1299; first compound 4 µM)	relative viability (IA-LM; first compound 0.04 µM)	relative viability (IA-LM; first compound 0.1265 µM)	relative viability (IA-LM; first compound 0.4 µM)	relative viability (IA-LM; first compound 1.265 µM)	relative viability (IA-LM; first compound 4 µM)	relative viability (Calu-6; first compound 0.04 µM)	relative viability (Calu-6; first compound 0.1265 µM)	relative viability (Calu-6; first compound 0.4 µM)	relative viability (Calu-6; first compound 1.265 µM)	relative viability (Calu-6; first compound 4 µM)	relative viability (NCI-H1703; first compound 0.04 µM)	relative viability (NCI-H1703; first compound 0.1265 µM)	relative viability (NCI-H1703; first compound 0.4 µM)	relative viability (NCI-H1703; first compound 1.265 µM)	relative viability (NCI-H1703; first compound 4 µM)	relative viability (A549; first compound 0.04 µM)	relative viability (A549; first compound 0.1265 µM)	relative viability (A549; first compound 0.4 µM)	relative viability (A549; first compound 1.265 µM)	relative viability (A549; first compound 4 µM)
COc1cc(N2CCC(C(N)=O)CC2)ccc1Nc1nc(N)c(Cl)c(Nc2ccccc2S(=O)(=O)C(C)C)n1 [HG-5-88-01] + C[C@@H](Oc1cc(-c2cnn(C3CCNCC3)c2)cnc1N)c1c(Cl)ccc(F)c1Cl [Crizotinib] (partner 1 µM)	0.183	0.187	0.207	0.171	0.142	0.652	0.581	0.621	0.445	0.171	0.992	0.981	0.982	0.976	0.881	0.907	0.953	0.773	0.632	0.758	0.767	0.81	0.833	0.616	0.304	0.581	0.523	0.54	0.327	0.175	0.735	0.763	0.699	0.387	0.0941
COc1cc(N2CCC(C(N)=O)CC2)ccc1Nc1nc(N)c(Cl)c(Nc2ccccc2S(=O)(=O)C(C)C)n1 [HG-5-88-01] + C[C@]1(O)C[C@@H](c2nc(-c3ccc4ccc(-c5ccccc5)nc4c3)c3c(N)nccn32)C1 [Linsitinib] (partner 1 µM)	0.892	0.373	0.924	0.847	0.927	1.03	0.931	0.698	1.01	1.1	0.999	0.97	0.945	0.97	1.1	0.602	0.383	0.488	0.314	0.542	0.938	0.837	0.95	0.929	1.02	0.689	0.648	–	0.486	1.62	0.59	0.771	0.634	0.432	0.796
COc1cc(N2CCC(C(N)=O)CC2)ccc1Nc1nc(N)c(Cl)c(Nc2ccccc2S(=O)(=O)C(C)C)n1 [HG-5-88-01] + Cc1nc(NC(=O)N2CCC[C@H]2C(N)=O)sc1-c1ccnc(C(C)(C)C(F)(F)F)c1 [Alpelisib] (partner 2 µM)	0.876	0.98	0.795	0.768	0.86	1.01	1	0.998	0.945	0.954	1.04	1.09	0.972	1.05	1.12	0.722	1	0.627	0.447	0.503	1.02	1.01	0.908	0.856	0.885	0.265	0.317	0.38	0.303	0.399	0.925	0.715	0.698	0.474	0.527
